Data reported in patent publication US20220372014A1, “NEUROPROTECTIVE COMPOUNDS AND METHODS OF USE THEREOF” (The Johns Hopkins University, priority 2019, published 2022).

Experiments:
human cortical neurons [1] = assay: Pulsed-field gel electrophoresis of α-syn PFF-induced DNA damage in human cortical neurons; assay type: cell-based
Description: Preparation and quantification of genomic DNA. The striatum was rapidly removed from the brain and lysed by repetitive pipetting with a micropipette in lysis buffer [100 mM NaCl, 10 mM Tris-HCl (pH 8.0), 25 mM EDTA (pH 8.0), 0.5% SDS] with 0.2 mg/ml proteinase K (Roche Diagnotics). Samples were incubated 55° C. for overnight and further incubated 85° C. for 45 m to inactivate proteinase K. The genomic DNA were immediately separated on a 1.2% pulse field certified agarose in 0.5×TBE buffer with initial switch time of 1.5 s and a final switch time of 3.5 s for 12 h at 6 V/cm. The gel was then stained with […] Ethidium Bromide (EtBr) and visualized on UV light. Noncleaved genomic DNA was quantified as percentage (%) of the total genomic DNA that included both noncleaved genomic DNA and cleaved genomic DNA in each individual group.
(§1) Preparation of human cortical neurons. Human H1 embryonic stem cells (ESCs) were differentiated into cortical neurons as previously described. See Xu et al. (2016) Sci. Transl. Med. 8:333ra48. Briefly, ESC colonies detached from mouse embryonic fibroblasts (MEFs) were grown in suspension in human ESC medium without FGF2 for 6 days in low-attachment six-well plates (Corning). On day 7, free-floating embyroid bodies (EB)s were transferred to Matrigel coated plates to allow the complete attachment of EB and formation of rosette neuronal aggregates (RONAs). […]

human cortical neurons [2] = assay: α-syn PFF-induced cell death in human cortical neurons (Hoechst and PI staining); assay type: cell-based; details: pre-incubated 1 h, α-syn PFF 14 days
Description: as §1, with “(RONAs). RONAs were manually microisolated and maintained as neurospheres for 1 day and then dissociated into single cells and plated on laminin/poly-D-lysine-coated plates for further experiments.” for “(RONAs).”
Cell death and viability assessment. Primary cultured cortical neurons were treated with 5 μg/ml of α-syn PFF for 14 days and cell death was determined by staining of all nuclei with 7 μM Hoechst 33342 and dead cell nuclei with 2 μM propidium iodide (PI) (Invitrogen). The numbers of total and dead cells were counted with the Axiovision 4.6 software (Carl Zeiss). Cell viability was determined by fluorescence at an excitation wavelength 570 nm and an emission wavelength 585 nm using Alamar Blue (Invitrogen).

PARP-1 = target: T1, PARP-1 (Homo sapiens, UniProt P09874); assay: In vitro ribosylation assay (IVRA) of PARP-1; assay type: biochemical; details: 1 μM
T1 construct: purchased Trevigen
Description: In vitro ribosylation assay of PARP-1. […] of recombinant PARP-1, activated DNA and NAD+(Trevigen) in the presence or absence of 1 μM of PARP-1 inhibitor, ABT-888 or PAAN/MIF inhibitors (compound 56 or 121) were incubated in the PARP assay buffer (Trevigen) for 30 m at room temperature and analyzed by immunoblot analysis using PAR antibody.

PAAN/MIF WT or variants = assay: Biolayer interferometry (ForteBio Octet) binding assay; design: species or system human
Source text: Purification of PAAN/MIF recombinant proteins. Human PAAN/MIF (NM_002415) cDNA and its variants were subcloned into pGEX-6β-1 vector (GE Healthcare) and mutants were generated using a QuikChange site-directed mutagenesis kit (Stratagene). The sequences were confirmed by automated DNA sequencing. The protein was expressed and purified from Escherichia coli by glutathione sepharose (GE Healthcare). The GST tag was subsequently proteolytically removed. GST protein was used as a negative control in the nuclease assay and PAAN/MIF proteins purified by FPLC using Superdex 200 10/300GL column (GE Healthcare, Life Sciences) were also used in the nuclease assays.
Biolayer interferometry assay. The dose-dependent binding of compound 121 for PAAN/MIF WT or PAAN/MIF variants were determined by a biolayer interferometry assay using Octet RED96 (ForteBio). See Guo et al. (2018) Nat. Chem. 11:254-63. All the proteins used in this assay were tagged with GST. Anti-GST biosensor tips (ForteBio) were used to immobilize the GST proteins after prewetting with 1X kinetic buffer (ForteBio). The equilibrated GST biosensors were loaded with PAAN/MIF WT or variants (25 μg/ml). Background binding controls were measured by sensors that were incubated in buffer without proteins. All assays were performed by a standard protocol in 96-well black plates (Greiner Bio) with a total volume of 200 μl per well. All the data were analyzed by Octet data analysis software.

pS6 kinase activity = assay: Immunoblot of pS6K, pS6 and p4E-BP1 levels in SH-SY5Y cells; assay type: cell-based; details: 0.5 or 1 μM, 3 h
Source text: FIGS. 14A-14G show the characterization of compound 121. […] Bars represent means±s.e.m. ***P<0.0005, two-way ANOVA followed by Tukey's post hoc test (n=4). […] Bars represent mean±s.e.m. ***P<0.0005, two-way ANOVA followed by Tukey's post hoc test (n=4). […] Bars represent means±s.e.m. **P<0.005, ***P<0.0005, one-way ANOVA followed by Tukey's post hoc test (n=3). […] Bar represent mean±s.e.m. ***P<0.0005, one-way ANOVA followed by Tukey's post hoc test (n=3). […] Quantification of inhibition of PARP-1 activity by compound 56, compound 121 and ABT-888 is shown. Graphs represent mean±s.e.m. ***P<0.0005, two-way ANOVA followed by Tukey's post hoc test (n=3). FIGS. 14F and 14G show Alamar blue cell viability assay from SH-SY5Y cells pre-incubated with either compound 56 or 121 in response to (14F) 0.5 μM staurosporine (STS) or (14G) from HT 22 cells incubated with 1 ng/ml of TNF-α with 50 μM z-VAD. Bars represent mean±s.e.m. ***P<0.0005, two-way ANOVA followed by Tukey's post hoc test (n=5).
Tissue lysate preparation and western blot analysis. […] Protein concentrations were determined using the BCA assay (Pierce) and samples were separated using SDS polyacrylamide gels and transferred onto nitrocellulose membranes. […]

T1 sequence (P09874 whole entry): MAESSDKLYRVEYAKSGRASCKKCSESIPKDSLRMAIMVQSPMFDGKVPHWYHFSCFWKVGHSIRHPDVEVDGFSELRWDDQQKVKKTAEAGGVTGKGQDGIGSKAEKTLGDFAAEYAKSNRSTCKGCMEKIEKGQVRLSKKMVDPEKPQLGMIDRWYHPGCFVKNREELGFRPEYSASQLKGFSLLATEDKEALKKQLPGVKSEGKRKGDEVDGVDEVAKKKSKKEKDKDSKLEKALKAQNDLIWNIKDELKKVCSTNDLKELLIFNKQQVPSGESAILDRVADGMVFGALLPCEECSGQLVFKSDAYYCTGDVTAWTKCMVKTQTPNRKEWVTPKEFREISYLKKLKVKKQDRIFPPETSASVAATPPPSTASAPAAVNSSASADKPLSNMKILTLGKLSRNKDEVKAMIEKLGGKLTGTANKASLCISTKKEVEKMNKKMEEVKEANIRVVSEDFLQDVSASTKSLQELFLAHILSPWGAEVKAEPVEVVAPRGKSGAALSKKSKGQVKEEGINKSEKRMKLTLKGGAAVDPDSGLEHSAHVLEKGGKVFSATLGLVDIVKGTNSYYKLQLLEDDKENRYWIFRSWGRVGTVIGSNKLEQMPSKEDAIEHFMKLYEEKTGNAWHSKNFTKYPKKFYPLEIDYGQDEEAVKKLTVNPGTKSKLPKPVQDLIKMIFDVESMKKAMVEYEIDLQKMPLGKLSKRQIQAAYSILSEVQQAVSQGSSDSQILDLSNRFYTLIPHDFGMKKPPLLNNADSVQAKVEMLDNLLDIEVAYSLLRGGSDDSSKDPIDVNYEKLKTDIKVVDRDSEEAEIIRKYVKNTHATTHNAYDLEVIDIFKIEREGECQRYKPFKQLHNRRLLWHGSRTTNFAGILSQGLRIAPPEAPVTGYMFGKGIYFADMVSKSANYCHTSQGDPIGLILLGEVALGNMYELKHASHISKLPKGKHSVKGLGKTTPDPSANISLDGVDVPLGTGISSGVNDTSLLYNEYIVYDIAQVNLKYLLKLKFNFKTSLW

Row | Structure (SMILES) | genomic DNA cleavage in human cortical neurons treated with human α-syn PFF (human cortical neurons [1]) | cell death in human cortical neurons treated with human α-syn PFF (human cortical neurons [2]) | ABT-888 sensitive PARP activity (PARP-1) | direct binding of PAAN/MIF WT and Y99A mutant (PAAN/MIF WT or variants) | direct binding of mutants L61A, N72A and 60-63A (PAAN/MIF WT or variants) | rapamycin sensitive pS6 kinase activity (pS6 kinase activity)
1 | COc1ccc(CC[C@H]2OC(=O)[C@@H]3CCCCN3C(=O)C(=O)C(C)(C)COC(=O)C=CCCN(C)C(=O)[C@@H]3CCCN3C(=O)[C@H](COC(C)(C)C)N(C)C(=O)C(c3ccccc3)NC(=O)[C@H](C)N(C)C(=O)COc3cccc2c3)cc1OC (stereo partly drawn) [compound 56] | prevented genomic DNA cleavage | protected against cell death similar to ABT-888 | failed to inhibit |  |  | 
2 | COc1ccc(CC[C@H]2OC(=O)[C@@H]3CCCCN3C(=O)C(=O)C(C)(C)COC(=O)C=CCCN(C)C(=O)[C@H](C)NC(=O)[C@H](C(C)C)N(C)C(=O)[C@@H](Cc3ccccc3)NC(=O)[C@H](CC(C)C)N(C)C(=O)CCC(=O)Nc3cccc2c3)cc1OC [compound 77] | prevented genomic DNA cleavage | protected against cell death similar to ABT-888 |  |  |  | 
3 | COc1ccc(CC[C@H]2OC(=O)[C@@H]3CCCCN3C(=O)C(=O)C(C)(C)COC(=O)C=CCCN(C)C(=O)[C@@H]3CCCN3C(=O)[C@H](COC(C)(C)C)N(C)C(=O)C(c3ccccc3)NC(=O)[C@H](C)N(C)C(=O)COc3cc(F)cc2c3)cc1OC (mixture of isomers) [compound 121] |  |  | failed to inhibit | exhibited binding | remarkably decreased | failed to inhibit
